The record followed here is US10633375B2, “Oxopicolinamide derivative, preparation method therefor and pharmaceutical use thereof” (Jiangsu Hengrui Medicine Co., Ltd., priority 2016, dated 2020).

Series [1] in a line: Pharmacokinetics assay in rats after intragastrical administration. Type of series: in vivo, Sprague-Dawley (SD) rats. Conditions: SD rats, intragastric, 2 mg/kg; for AUC / Cmax / Vd/F / CL/F / half-life / MRT: both sexes, Sprague-Dawley, rat, plasma, po; for AUC: read-out: Area Under Curve AUC; for Cmax: read-out: Plasma Concentration Cmax; for Vd/F: read-out: Apparent Distribution Volume Vz/F; for CL/F: read-out: Clearance CLz/F; for half-life: read-out: Half-Life T½ (converted); for MRT: read-out: Mean Residence Time MRT. The source says:
Test Example 3. Pharmacokinetics Assay of the Compounds of the Present Invention
Rats were used as test animals. […] The pharmacokinetic behavior of the compounds of the present invention was studied and evaluated in rats.
56 healthy adult Sprague-Dawley (SD) rats, half male and half female, were purchased from SINO-BRITSH SIPPR/BK LAB. ANIMAL LTD., CO, with License No.: SCXK (Shanghai) 2008-0016.
2.3 Preparation of the Test Compounds
A certain amount of the test compound was weighed, and added with 5% by volume of DMSO, 5% by volume of Tween 80 and 90% normal saline to prepare a 0.2 mg/mL colorless, clear and transparent solution.
After an overnight fast, SD rats were intragastrically administered at a dose of 2.0 mg/kg and an administration volume of 10.0 mL/kg.
Blood (0.2 mL) was taken from the orbital sinus before administration and at 0.5, 1.0, 2.0, 4.0, 6.0, 8.0, 11.0 and 24.0 hours after administration. The samples were stored in heparin anticoagulation tubes, and centrifuged for 10 minutes at 3500 rpm at 4° C. to separate the blood plasma. The plasma samples were stored at −20° C. The rats were fed 2 hours after administration.
The content of the test compound in the plasma of rats after intragastric administration of different concentrations of the drug was determined: 25 μL of rat plasma at each time after administration was taken and added with 30 μL (100 ng/mL) of the internal standard solution of camptothecin and 200 μL of acetonitrile, shaken vertically for 5 minutes, and centrifuged for 10 minutes (4000 rpm). 3.0 μL of the supernatant was taken from the plasma samples for LC/MS/MS analysis.
4. Results of Pharmacokinetic Parameters
Pharmacokinetic parameters of the compounds of the present invention in rats are shown below.

Series [2] has as its target Coagulation Factor XIa protease (Homo sapiens (Human), UniProt P03951). Nature of the series: Inhibition of Factor XIa detected by absorption photometry. It counts as biochemical. The note with it: absorbance at 405 nm, 10 minutes at 37° C. The procedure:
Test Example 1: Biological Activity of the Compounds of the Present Invention on
The Inhibition of Factor XIa Detected by Absorption Photometry
1. Experimental Materials
Enzyme: Coagulation Factor XIa protease (Abcam, Art. No ab62411)
Substrate: Coagulation Factor XIa specific substrate (HYPHEN1310 med, Art. No. Biophen cs-21(66))
2. Experimental Procedure
20 mM of test compound dissolved in 100% DMSO was diluted to 200, 20, 2, 0.2, 0.02, 0.002 μM with 100% DMSO; 1 μl of the compound was added to each well in a 384-well plate, blank and control wells were replaced with DMSO. The plate was centrifuged to remove the compound to the bottom. 10 μl (2.5 μg/ml) of FXIa enzyme solution was added to each well, and 10 μl of buffer was added to the blank well. The plate was centrifuged to remove the enzyme solution to the bottom.
Finally, 10 μl of 2 mM substrate were added to each well, and the plate was centrifuged to remove the substrate solution to the bottom.
The plate was incubated for 10 minutes at 37° C.; and then the absorbance was measured at 405 nm.

Sequence of Coagulation Factor XIa protease (P03951 388-625): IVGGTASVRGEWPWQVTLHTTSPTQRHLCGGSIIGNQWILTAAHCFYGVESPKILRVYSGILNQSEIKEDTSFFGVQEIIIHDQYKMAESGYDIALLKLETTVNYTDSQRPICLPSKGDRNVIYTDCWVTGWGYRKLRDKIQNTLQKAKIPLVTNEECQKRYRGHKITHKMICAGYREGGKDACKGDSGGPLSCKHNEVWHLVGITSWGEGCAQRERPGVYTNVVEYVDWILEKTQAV
Sequence of Coagulation Factor XIa protease (P03951 19-387 partner): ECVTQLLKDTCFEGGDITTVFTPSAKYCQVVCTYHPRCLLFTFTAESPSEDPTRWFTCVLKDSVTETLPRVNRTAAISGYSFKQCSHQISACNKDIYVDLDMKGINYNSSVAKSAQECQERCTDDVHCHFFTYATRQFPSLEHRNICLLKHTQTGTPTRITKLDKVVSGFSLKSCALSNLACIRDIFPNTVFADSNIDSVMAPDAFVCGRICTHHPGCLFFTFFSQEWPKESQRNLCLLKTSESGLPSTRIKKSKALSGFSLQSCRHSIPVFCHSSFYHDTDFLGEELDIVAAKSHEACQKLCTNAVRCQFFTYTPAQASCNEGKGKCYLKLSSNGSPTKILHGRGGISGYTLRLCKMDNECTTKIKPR

For `COc1cn([C@@H](Cc2ccncc2)C(=O)Nc2ccc(C(=O)O)cc2)c(=O)cc1-c1cc(Cl)ccc1C#N` [Comparative Example 1, (S)-4-(2-(4-(5-chloro-2-cyanophenyl)-5-methoxy-2-oxopyridin-1(21)-yl)-3-(pyridin-4-yl)propanamido)benzoic acid, reference compound], in series [1], the AUC (in general, the area under the concentration-time curve, a measure of exposure) turned out to be 7.27 ± 3.37 ng·h/mL and the Cmax amounted to 7.02 ± 2.97 ng/mL.
With `COc1cn(C(Cc2ccccc2)C(=O)Nc2ccc(C(=O)O)cc2F)c(=O)cc1-c1cc(Cl)ccc1C(C)=O` (stereo not shown) [Example 29, 4-(2-(4-(2-acetyl-5-chlorophenyl)-5-methoxy-2-oxopyridin-1 (2H)-yl)-3-phenylpropanamido)-3-fluorobenzoic acid], in series [2], the IC50 (in general, the point on the concentration scale where inhibition reaches its midpoint) amounted to 90 nM. For the same compound, in series [1], the Vd/F was 45.4 ± 16.5 L/kg; the AUC was 382 ± 98 ng·h/mL; the CL/F came out at 92.5 ± 28.3 mL/min/kg; the half-life (as a rule, the time in which the quantity being followed falls by half) is 6.06 ± 2.99 h. In addition, in series [1], the MRT (in general, a mean duration of stay, worked out from the concentration-time curve) was determined as 5 ± 2.57 h and the Cmax was found to be 167 ± 45 ng/mL.
In series [2], `COc1cn([C@@H](Cc2cccnc2)C(=O)Nc2ccc(C(=O)O)cc2)c(=O)cc1-c1cc(Cl)ccc1C(C)=O` [Example 84, (S)-4-(2-(4-(2-acetyl-5-chlorophenyl)-5-methoxy-2-oxopyridin-1(2H)-yl)-3-(pyridin-3-yl)propanamido)benzoic acid] displayed an IC50 of 42 nM. In series [1], the “AUC difference, Example 84 versus Comparative Example 1” value was 7.5 times; the “Cmax difference, Example 84 versus Comparative Example 1” value is 6.9 times; the Vd/F was 37.9 ± 8.23 L/kg; the AUC turned out to be 54.6 ± 19.1 ng·h/mL. Besides, in series [1], the CL/F came out at 673 ± 235 mL/min/kg, the half-life is 0.68 ± 0.14 h, the MRT worked out at 1.2 ± 0.2 h and the Cmax came out at 48.8 ± 8.8 ng/mL.
In the case of `CNC(=O)c1ccc(NC(=O)[C@H](CCOC(C)(C)C)n2cc(OC)c(-c3cc(Cl)ccc3C(C)=O)cc2=O)cc1` [Example 123, (S)-4-(2-(4-(2-acetyl-5-chlorophenyl)-5-methoxy-2-oxopyridin-1(2H)-yl)-4-(tert-butoxy)butanamido)-N-methylbenzamide], in series [2], half-maximal inhibition (IC50) required 100 nM.
Still for that read-out and setting: to `CCC(=O)c1ccc(Cl)cc1-c1cc(=O)n(C(CCOC(C)(C)C)C(=O)Nc2ccc3nc(C)c(C)nc3c2)cc1OC` (stereo not shown) [Example 124, 4-(tert-butoxy)-2-(4-(5-chloro-2-propionylphenyl)-5-methoxy-2-oxopyridin-(2H)-yl)-N-(2,3-dimethylquinoxalin-6-yl)butanamide] belongs 100 nM; to `CCC(=O)c1ccc(Cl)cc1-c1cc(=O)n(C(CCOC(C)(C)C)C(=O)Nc2ccc3nn(C)cc3c2)cc1OC` (stereo not shown) [Example 141], 66 nM; to `COCCC(C(=O)Nc1ccc(C(=O)O)cc1)n1cc(OC)c(-c2c(C(C)=O)ccc(Cl)c2F)cc1=O` (stereo not shown) [Example 146, 4-(2-(4-(6-acetyl-3-chloro-2-fluorophenyl)-5-methoxy-2-oxopyridin-1(21)-yl)-4-methoxvbutanamido)benzoic acid], 37 nM.
In the case of `COCCC(C(=O)Nc1ccc(C(=O)O)cc1)n1cc(OC)c(-c2cc(Cl)ccc2C(C)=O)cc1=O` (stereo not shown) [Example 147, 4-(2-(4-(2-acetyl-5-chlorophenyl)-5-methoxy-2-oxopyridin-1(2H)-yl)-4-methoxybutanamido)benzoic acid], the IC50 in series [2] came out at 56 nM.
On the same count and under the same terms, to `CCCCC(C(=O)Nc1ccc(C(=O)O)cc1)n1cc(OC)c(-c2cc(Cl)ccc2C(C)=O)cc1=O` (stereo not shown) [Example 155, 4-(2-(4-(2-acetyl-5-chlorophenyl)-5-methoxy-2-oxopyridin-1(2H)-yl)hexanamido)benzoic acid] belongs 81 nM; to `COc1cn(C(CC2(C)CC2)C(=O)Nc2ccc(C(=O)O)cc2)c(=O)cc1-c1cc(Cl)ccc1C(C)=O` (stereo not shown) [Example 158, 4-(2-(4-(2-acetyl-5-chlorophenyl)-5-methoxy-2-oxopyridin-1(2H)-yl)-3-(1-methylcyclopropyl)propanamido)benzoic acid], 46 nM; to `COc1cn(C(CC2CCC2)C(=O)Nc2ccc(C(=O)O)cc2)c(=O)cc1-c1c(C(C)=O)ccc(Cl)c1F` (stereo not shown) [Example 159, 4-(2-(4-(6-acetyl-3-chloro-2-fluorophenyl)-5-methoxy-2-oxopyridin-1(2H)-yl)-3-cyclobutylpropanamido)benzoic acid], 33 nM.
For the compound `COc1cn([C@@H](CC2CCC2)C(=O)Nc2ccc(C(=O)O)cc2)c(=O)cc1-c1c(C(C)=O)ccc(Cl)c1F` [Example 161, (S)-4-(2-(4-(6-acetyl-3-chloro-2-fluorophenyl)-5-methoxy-2-oxopyridin-1(2H)-yl)-3-cyclobutylpropanamido)benzoic acid], the IC50 in series [2] worked out at 13100 nM.
The compound `COc1cn(C(CCOC2CCC2)C(=O)Nc2ccc(C(=O)O)cc2)c(=O)cc1-c1cc(Cl)ccc1C(C)=O` (stereo not shown) [Example 162, 4-(2-(4-(2-acetyl-5-chlorophenyl)-5-methoxy-2-oxopyridin-1(2H)-yl)-4-cyclobutoxybutanamido)benzoic acid] showed an IC50 in series [2] of 35 nM.
In series [2], `COc1cn(C(CC2CC2)C(=O)Nc2ccc(C(=O)O)cc2)c(=O)cc1-c1cc(Cl)ccc1C(C)=O` (stereo not shown) [Example 167, 4-(2-(4-(2-acetyl-5-chlorophenyl)-5-methoxy-2-oxopyridin-1(2H)-yl)-3-cyclopropylpropanamido)benzoic acid] came in with an IC50 of 92 nM.
On the same count and under the same terms, then `COc1cn([C@@H](CC2CC2)C(=O)Nc2ccc(C(=O)O)cc2)c(=O)cc1-c1cc(Cl)ccc1C(C)=O` [Example 168, (S)-4-(2-(4-(2-acetyl-5-chlorophenyl)-5-methoxy-2-oxopyridin-1(2H)-yl)-3-cyclopropylpropanamido)benzoic acid], with 43 nM.
With `COc1cn([C@@H](CC2CCC2)C(=O)Nc2ccc(C(=O)O)cc2)c(=O)cc1-c1cc(Cl)ccc1C(C)=O` [Example 171, (S)-4-(2-(4-(2-acetyl-5-chlorophenyl)-5-methoxy-2-oxopyridin-1(2H)-yl)-3-cyclobutylpropanamido)benzoic acid], the IC50 in series [2] came to 35 nM. Besides, in series [1], the Vd/F is 6.24 ± 2.15 L/kg, the AUC is 701 ± 175 ng·h/mL, the CL/F turned out to be 49.9 ± 12.5 mL/min/kg and the half-life was 1.45 ± 0.32 h. In series [1], the mean residence time MRT was 1.71 ± 0.32 h and the Cmax turned out to be 462 ± 116 ng/mL.
For `COc1cn([C@H](CC2CCC2)C(=O)Nc2ccc(C(=O)O)cc2)c(=O)cc1-c1cc(Cl)ccc1C(C)=O` [Example 172, (R)-4-(2-(4-(2-acetyl-5-chlorophenyl)-5-methoxy-2-oxopyridin-1(2H)-yl)-3-cyclobutylpropanamido)benzoic acid], half-maximal inhibition in series [2] (IC50) was put at 8920 nM.
The same measure, in the same setting: to `COc1cn(C(CC2CC(C)(C)C2)C(=O)Nc2ccc(C(=O)O)cc2)c(=O)cc1-c1cc(Cl)ccc1C(C)=O` (stereo not shown) [Example 173, 4-(2-(4-(2-acetyl-5-chlorophenyl)-5-methoxy-2-oxopyridin-1(2H)-yl)-3-(3,3-dimethylcyclobutyl)propanamido)benzoic acid] belongs 100 nM.
Still for that read-out and setting: then `COc1cn(C(CC2CCCCO2)C(=O)Nc2ccc(C(=O)O)cc2)c(=O)cc1-c1cc(Cl)ccc1C(C)=O` (stereo not shown) [Example 176], with 71 nM.
